In the supplement of paper PMC11208160:
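Further: IS621 bridge recombinase in Escherichia coli cells against a fixed T5 target plasmid.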

Experiment: recombinant UMI read abundance after kanamycin selection (control-corrected) (log10(CPM+1)); higher = more efficient recombination; extreme values may be limits of the assay; sequences stand for … in AGTGCAGAGAAAATCGGCCAGTTTTCTCTGCCTGCAGTCCGCATGCCGTGGGACCCCTTGGGTTCTAACCTGTTGCCTAGATTTATGCAGCGGACTGCCTTTCTCCCAAAGTGATAAACCGG…AGGTTGGTTTCACT; site = the 11-nt donor
Procedure, shortened: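 Sequenced counts of recombinant UMIs were turned into CPM, averaged across replicates and scaled with control-derived factors. The reported figure is log10(CPM+1). Those UMIs, each 12 nt long, tagged donor and donor-binding-loop pairs on a plasmid with a promoterless kanamycin gene, screened as a pool in Escherichia coli with IPTG (0.07 mM) plus kanamycin or without selection.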
For “GAGACTCCATGGACCGGTTTTCCCGGTAATCCGTATTTGTA (site GAGACTCCTTA)”, the “recombinant UMI read abundance (log10)” value was 0.807.
For “GAGCACACATGGACCGGTTTTCCCGGTAATCCGTATTTGGA (site GAGCACACTTC)”, the “recombinant UMI read abundance (log10)” value was 0.594.
In the case of “GAGCCTTCATGGACCGGTTTTCCCGGTAATCCGTATTTGGT (site AAGCCTTCTAC)”, the “recombinant UMI read abundance (log10)” value is reported as 0.678.
In the case of “GAGCCTTCATGGACCGGTTTTCCCGGTAATCCGTATTTGGT (site CAGCCTTCTAC)”, the “recombinant UMI read abundance (log10)” value is reported as 0.79.
With “GAGCCTTCATGGACCGGTTTTCCCGGTAATCCGTATTTGGT (site GAGCCTTCTAC)” the “recombinant UMI read abundance (log10)” value was 0.859.
With “GAGCCTTCATGGACCGGTTTTCCCGGTAATCCGTATTTGGT (site TAGCCTTCTAC)” the “recombinant UMI read abundance (log10)” value was 0.0029.
With “GAGCGAGCATGGACCGGTTTTCCCGGTAATCCGTATTTGTA (site GAGCGAGCTTA)” the “recombinant UMI read abundance (log10)” value was 2.57.
For “GAGCTCACATGGACCGGTTTTCCCGGTAATCCGTATTTGAC (site GAGCTCACTAT)”, the “recombinant UMI read abundance (log10)” value was 1.
For “GAGCTCACATGGACCGGTTTTCCCGGTAATCCGTATTTGAC (site GAGCTCACTCT)”, the “recombinant UMI read abundance (log10)” value was 0.476.
For “GAGCTCACATGGACCGGTTTTCCCGGTAATCCGTATTTGAC (site GAGCTCACTGT)”, the “recombinant UMI read abundance (log10)” value was 2.53.
In the case of “GAGCTCACATGGACCGGTTTTCCCGGTAATCCGTATTTGAC (site GAGCTCACTTT)”, the “recombinant UMI read abundance (log10)” value is reported as 0.00766.
In the case of “GAGCTCACATGGACCGGTTTTCCCGGTAATCCGTATTTGTT (site GAGCTCACTAA)”, the “recombinant UMI read abundance (log10)” value is reported as 1.53.
For “GAGCTCACATGGACCGGTTTTCCCGGTAATCCGTATTTGTT (site GAGCTCACTAC)”, the “recombinant UMI read abundance (log10)” value was 0.0125.
For “GAGCTCACATGGACCGGTTTTCCCGGTAATCCGTATTTGTT (site GAGCTCACTAG)”, the “recombinant UMI read abundance (log10)” value was 2.34.
With “GAGCTCACATGGACCGGTTTTCCCGGTAATCCGTATTTGTT (site GAGCTCACTAT)” the “recombinant UMI read abundance (log10)” value was 1.08.
With “GAGGATGCATGGACCGGTTTTCCCGGTAATCCGTATTTGTA (site GAGGATGCTTA)” the “recombinant UMI read abundance (log10)” value was 2.8.
For “GAGGCTACATGGACCGGTTTTCCCGGTAATCCGTATTTGTG (site GAGGCTACTCA)”, the “recombinant UMI read abundance (log10)” value was 1.4.
For “GAGGGTACATGGACCGGTTTTCCCGGTAATCCGTATTTGGC (site GAGGGTACTGC)”, the “recombinant UMI read abundance (log10)” value was 2.1.
In the case of “GAGGTACCATGGACCGGTTTTCCCGGTAATCCGTATTTGTA (site GAGGTACCTTA)”, the “recombinant UMI read abundance (log10)” value is reported as 0.00435.
For “GAGGTATCATGGACCGGTTTTCCCGGTAATCCGTATTTGCT (site GAGGTATCTAG)”, the “recombinant UMI read abundance (log10)” value was 2.57.
In the case of “GAGGTCACATGGACCGGTTTTCCCGGTAATCCGTATTTGAT (site GAGATCACTAT)”, the “recombinant UMI read abundance (log10)” value is reported as 1.36.
In the case of “GAGGTCACATGGACCGGTTTTCCCGGTAATCCGTATTTGAT (site GAGCTCACTAT)”, the “recombinant UMI read abundance (log10)” value is reported as 0.00889.
With “GAGGTCACATGGACCGGTTTTCCCGGTAATCCGTATTTGAT (site GAGGTCACTAT)” the “recombinant UMI read abundance (log10)” value was 1.35.
In the case of “GAGGTCACATGGACCGGTTTTCCCGGTAATCCGTATTTGAT (site GAGTTCACTAT)”, the “recombinant UMI read abundance (log10)” value is reported as 0.
For “GAGTATCCATGGACCGGTTTTCCCGGTAATCCGTATTTGCT (site GAATATCCTAG)”, the “recombinant UMI read abundance (log10)” value was 0.
With “GAGTATCCATGGACCGGTTTTCCCGGTAATCCGTATTTGCT (site GACTATCCTAG)” the “recombinant UMI read abundance (log10)” value was 0.506.
With “GAGTATCCATGGACCGGTTTTCCCGGTAATCCGTATTTGCT (site GAGTATCCTAG)” the “recombinant UMI read abundance (log10)” value was 0.75.
For “GAGTATCCATGGACCGGTTTTCCCGGTAATCCGTATTTGCT (site GATTATCCTAG)”, the “recombinant UMI read abundance (log10)” value was 0.
In the case of “GAGTCCTCATGGACCGGTTTTCCCGGTAATCCGTATTTGCC (site GAGTCCTCTGG)”, the “recombinant UMI read abundance (log10)” value is reported as 0.
For “GAGTCGACATGGACCGGTTTTCCCGGTAATCCGTATTTGGG (site AAGTCGACTCC)”, the “recombinant UMI read abundance (log10)” value was 0.257.
With “GAGTCGACATGGACCGGTTTTCCCGGTAATCCGTATTTGGG (site CAGTCGACTCC)” the “recombinant UMI read abundance (log10)” value was 0.0177.
With “GAGTCGACATGGACCGGTTTTCCCGGTAATCCGTATTTGGG (site GAGTCGACTCC)” the “recombinant UMI read abundance (log10)” value was 0.044.
With “GAGTCGACATGGACCGGTTTTCCCGGTAATCCGTATTTGGG (site TAGTCGACTCC)” the “recombinant UMI read abundance (log10)” value was 0.0071.
In the case of “GAGTGCCCATGGACCGGTTTTCCCGGTAATCCGTATTTGCC (site GAGTGCCCTGG)”, the “recombinant UMI read abundance (log10)” value is reported as 0.
With “GAGTTTCCATGGACCGGTTTTCCCGGTAATCCGTATTTGCG (site GAGTTTCCTCG)” the “recombinant UMI read abundance (log10)” value was 0.572.
For “GATAATCCATGGACCGGTTTTCCCGGTAATCCGTATTTGCT (site GATAATCCTAG)”, the “recombinant UMI read abundance (log10)” value was 0.
With “GATAATCCATGGACCGGTTTTCCCGGTAATCCGTATTTGCT (site GATCATCCTAG)” the “recombinant UMI read abundance (log10)” value was 0.
